The results in this text go back to EPA's ToxValDB 9.5 (doi:10.2903/j.efsa.2011.2088).

For one data set, the system named is Tagia sp. The conditions noted are these: mortality.
Another data set relates to Canidae. To be noted: chronic; duration: 1 years; oral; diet; M/F; Beagle; hematological.
The subject of the next data set is Colinus virginianus. To be noted: for LD50: acute, oral, mortality.
The next data set has as its system Pimephales promelas. To be noted: chronic/long-term; duration: 34 days; reproduction.
For the next data set, the system named is Bibionidae. To be noted: chronic/long-term; duration: 28 days.
The next data set concerns Anas platyrhynchos. The conditions noted are these: short-term; oral; feed; mortality.
The subject of another data set is Oncorhynchus mykiss. To be noted: acute; duration: 96 hours; mortality.
The next data set deals with Apis mellifera. The conditions noted are these: acute; duration: 48 hours; dermal; mortality.
A further data set relates to Daphnia magna. To be noted: chronic/long-term; duration: 21 days; mortality.
For the next data set, the system named is Folsomia candida. To be noted: chronic/long-term; duration: 28 days.
In a further data set the test system is Typhlodromus pyri. Kind of data set: LR50; higher = less toxic. To be noted: not reported; mortality.
In another data set the test system is Aphidius rhopalosiphi. The data set can be described thus: LR50; higher = less toxic. To be noted: not reported; mortality.

For `O=C(NC(=O)c1c(F)cccc1F)Nc1ccc(Oc2ccc(C(F)(F)F)cc2Cl)cc1F` [Flufenoxuron], the LC50 was over 1000 mg/kg in the data set on Tagia sp. (acute, duration: 14 days) and over 5 ng/mL in the data set on Oncorhynchus mykiss. Also, the NOEC amounted to 5 mg/kg in the data set on Tagia sp. (chronic/long-term, duration: 56 days); 0.00082 mg/L with Pimephales promelas; 3.6e-05 mg/L in the data set with Bibionidae; 3.24e-06 mg/L in the data set on Daphnia magna; 0.11 mg/kg in the data set on Folsomia candida. Also, the NOAEL (commonly the highest dose or exposure tested at which no adverse effect was seen) is at most 3.8 mg/kg-day with Canidae and 4.3 mg/kg-day in the data set with Rattus norvegicus (reproduction developmental, growth). Also, the LD50 with Colinus virginianus (diet) was over 1240 mg/kg-day; in the data set on Colinus virginianus, over 2000 mg/kg-day; with Rattus norvegicus (acute, oral, mortality), over 3000 mg/kg-day; in the data set with Anas platyrhynchos, over 1240 mg/kg-day; in the data set with Apis mellifera it was over 100 µg/piece. Further, the NOEL in the data set on Colinus virginianus (reproduction developmental) is 9.76 mg/kg-day. In addition, the LR50 in the data set with Typhlodromus pyri was 73 g/ha; in the data set on Aphidius rhopalosiphi, over 386 g/ha.
